How the values were obtained:
[1] = biological target: T1, human mGluR2 receptor (Homo sapiens, UniProt Q14416); assay: [35S]GTPγS binding assay (PAM assay), membranes from CHO cells transfected with human mGluR2; type: biochemical; details: in presence of glutamate at predetermined EC25 concentration; averages of duplicate values of 11-concentration response curves; read-out: GTPγS - hR2 PAM pEC50 (converted)
T1 construct: expressed in transfected cells; host or cells: CHO cells
Description: The compounds provided in the present invention are positive allosteric modulators of mGluR2. These compounds appear to potentiate glutamate responses by binding to an allosteric site other than the glutamate binding site. The response of mGluR2 to a concentration of glutamate is increased when compounds of Formula (I) are present. Compounds of Formula (I) are expected to have their effect substantially at mGluR2 by virtue of their ability to enhance the function of the receptor. The behaviour of positive allosteric modulators tested at mGluR2 using the [^35S]GTPγS binding assay method described below and which is suitable for the identification of such compounds, and more particularly the compounds according to Formula (I), are shown in Table 2.
The [^35S]GTPγS binding assay is a functional membrane-based assay used to study G-protein coupled receptor (GPCR) function whereby incorporation of a non-hydrolysable form of GTP, [^35S]GTPγS (guanosine 5′-triphosphate, labelled with […] ^35S), is measured. The G-protein α subunit catalyzes the exchange of guanosine 5′-diphosphate (GDP) by guanosine triphosphate (GTP) and on activation of the GPCR by an agonist, [^35S]GTPγS, becomes incorporated and cannot be cleaved to continue the exchange cycle (Harper (1998) Current Protocols in Pharmacology 2.6.1-10, John Wiley & Sons, Inc.). […] Here we describe the use of the [^35S]GTPγS binding assay using membranes from cells transfected with the human mGluR2 receptor and adapted from Schaffhauser et al ((2003) Molecular Pharmacology 4:798-810) for the detection of the positive allosteric modulation (PAM) properties of the compounds of this invention.
CHO-cells were cultured to pre-confluence and stimulated with 5 mM butyrate for 24 hours, prior to washing in PBS, and then collected by scraping in homogenisation buffer (50 mM Tris-HCl buffer, pH 7.4, 4° C.). […] Protein concentration was determined by the Bradford method (Bio-Rad, USA) with bovine serum albumin as standard.
Measurement of mGluR2 positive allosteric modulatory activity of test compounds in membranes containing human mGluR2 was performed using frozen membranes that were thawed and briefly homogenized prior to pre-incubation in 96-well microplates (15 μg/assay well, 30 minutes, 30° C.) in assay buffer (50 mM HEPES pH 7.4, 100 mM NaCl, 3 mM MgCl2, 50 μM GDP, 10 μg/ml saponin,) with increasing concentrations of positive allosteric modulator (from 0.3 nM to 50 μM) and either a minimal pre-determined concentration of glutamate (PAM assay), or no added glutamate. […] Filters were then air-dried, and 40 μl of liquid scintillation cocktail (Microscint-O) was added to each well, and membrane-bound [^35S]GTPγS was measured in a 96-well scintillation plate reader (Top-Count, Perkin-Elmer, USA). […]

T1 sequence (Q14416 19-872): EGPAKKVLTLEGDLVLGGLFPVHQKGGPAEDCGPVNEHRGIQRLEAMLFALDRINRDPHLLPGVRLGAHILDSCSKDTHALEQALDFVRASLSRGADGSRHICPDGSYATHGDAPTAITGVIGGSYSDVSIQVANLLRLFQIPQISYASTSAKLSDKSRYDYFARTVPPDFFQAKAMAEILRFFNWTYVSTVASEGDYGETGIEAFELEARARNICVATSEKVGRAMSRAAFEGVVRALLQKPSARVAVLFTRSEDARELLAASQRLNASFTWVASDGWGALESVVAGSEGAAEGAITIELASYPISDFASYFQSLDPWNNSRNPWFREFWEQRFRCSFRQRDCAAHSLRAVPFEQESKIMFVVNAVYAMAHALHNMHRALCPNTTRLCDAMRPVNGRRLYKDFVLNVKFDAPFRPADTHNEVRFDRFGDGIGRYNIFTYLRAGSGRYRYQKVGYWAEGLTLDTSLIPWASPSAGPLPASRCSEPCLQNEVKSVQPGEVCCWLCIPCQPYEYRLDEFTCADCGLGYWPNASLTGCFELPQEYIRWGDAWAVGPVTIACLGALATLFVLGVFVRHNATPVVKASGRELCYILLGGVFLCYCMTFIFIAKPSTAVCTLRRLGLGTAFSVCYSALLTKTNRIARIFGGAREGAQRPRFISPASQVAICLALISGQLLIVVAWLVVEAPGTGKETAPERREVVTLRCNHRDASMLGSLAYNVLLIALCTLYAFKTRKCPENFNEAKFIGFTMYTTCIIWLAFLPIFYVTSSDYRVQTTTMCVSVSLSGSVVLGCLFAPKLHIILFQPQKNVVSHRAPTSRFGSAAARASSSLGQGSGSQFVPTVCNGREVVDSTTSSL

Row | Compound | EC50 [1] [µM] | melting point [°C]
1 | CCCCn1ccc(N2C[C@@H]3[C@H](C2)[C@H]3c2ccccc2)c(Cl)c1=O [Compound E4, (2aα,3α,3aα)-1-Butyl-3-chloro-4-(6-phenyl-3-aza-bicyclo[3.1.0]hex-3-yl)-1H-pyridin-2-one] | 0.0891 | 185.9
2 | O=c1c(Cl)c(N2CC3[C@H](C2)[C@H]3c2ccccc2)ccn1CC1CC1 (stereo partly drawn) [Compound E1, (2aα,3α,3aα)-3-Chloro-1-cyclopropylmethyl-4-(6-phenyl-3-aza-bicyclo[3.1.0]hex-3-yl)-1H-pyridin-2-one] | 0.275 | 172.2
3 | CCCCn1ccc(N2C[C@@H]3[C@@H](COc4cc(Cl)ccc4Cl)[C@@H]3C2)c(Cl)c1=O [Compound E2] | 0.123 | –
4 | CCCCn1ccc(N2C[C@@H]3[C@H](COc4cc(Cl)ccc4Cl)[C@@H]3C2)c(Cl)c1=O [Compound E3] | 0.126 | –

Source: patent US8691849B2, “3-azabicyclo[3.1.0]hexyl derivatives as modulators of metabotropic glutamate receptors” (Janssen Pharmaceuticals, Inc., priority 2008, dated 2014)
